Like-named read-outs stand apart in the source and are kept apart here.
Experiments:
[1] = Reducing activity with the stable radical DPPH
Outline: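 DPPH (final 0.05 mM) in absolute ethanol mixed with an equal volume of compound at 0.05 or 0.1 mM, ethanol as control. Absorbance at 517 nm read at room temperature after 20 and 60 min, expressed as reducing activity RA%.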

[2] = ABTS•+ decolorization assay
Outline: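 Compounds (10 mM DMSO stocks, diluted) added to ABTS•+ radical generated by potassium persulfate oxidation of ABTS. Decolorization followed as absorbance at room temperature, with Trolox as standard.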

[3] = Inhibition of linoleic acid lipid peroxidation (AAPH)
Outline: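 Sodium linoleate oxidation was initiated by AAPH in 0.05 M phosphate buffer, pH 7.4, at 37 °C, with test compound present and DMSO as blank. Conjugated diene hydroperoxide formation was followed as the absorbance increase at 234 nm.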

soybean lipoxygenase [4] = target: T1, soybean lipoxygenase (Glycine max, UniProt P08170); test: biochemical; format: biochemical; details: soybean LOX; for IC50: read-out: LOX IC50
T1 sequence (P08170 1-839): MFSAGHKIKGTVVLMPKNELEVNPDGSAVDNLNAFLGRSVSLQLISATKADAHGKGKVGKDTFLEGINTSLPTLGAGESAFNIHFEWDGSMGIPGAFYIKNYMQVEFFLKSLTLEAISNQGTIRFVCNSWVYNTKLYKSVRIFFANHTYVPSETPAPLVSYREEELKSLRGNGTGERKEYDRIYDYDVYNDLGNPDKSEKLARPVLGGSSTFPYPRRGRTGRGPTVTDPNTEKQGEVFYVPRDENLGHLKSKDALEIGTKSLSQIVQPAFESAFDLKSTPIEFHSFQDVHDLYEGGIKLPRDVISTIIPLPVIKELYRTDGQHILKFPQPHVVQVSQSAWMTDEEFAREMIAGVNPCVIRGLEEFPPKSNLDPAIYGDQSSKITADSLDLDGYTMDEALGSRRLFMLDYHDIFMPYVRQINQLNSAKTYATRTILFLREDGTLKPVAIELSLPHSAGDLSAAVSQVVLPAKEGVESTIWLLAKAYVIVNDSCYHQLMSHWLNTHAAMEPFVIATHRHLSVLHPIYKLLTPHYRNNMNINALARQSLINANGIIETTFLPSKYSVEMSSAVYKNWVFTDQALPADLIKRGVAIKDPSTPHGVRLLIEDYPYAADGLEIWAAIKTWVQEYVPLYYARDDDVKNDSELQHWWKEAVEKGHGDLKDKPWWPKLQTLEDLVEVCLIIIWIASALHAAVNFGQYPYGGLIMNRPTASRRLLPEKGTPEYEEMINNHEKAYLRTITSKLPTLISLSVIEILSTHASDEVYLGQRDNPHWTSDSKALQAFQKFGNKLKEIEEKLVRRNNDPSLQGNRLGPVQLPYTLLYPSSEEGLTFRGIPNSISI
Outline: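 Soybean LOX (enzyme solution 1/9 × 10^−4 w/v in saline) incubated at room temperature with sodium linoleate ([…]) in tris buffer pH 9. Compounds added from DMSO stocks. IC50 derived from several concentrations.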

[5] = Lipophilicity as RM values by RP-TLC; format: physicochemical; design: key: RM = log[(1/Rf) − 1]; details: methanol/water 70/30, SD < 10%
Outline: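 Reversed-phase TLC on silica gel plates impregnated with 5% (v/v) liquid paraffin, methanol/water 70/30 (v/v) mobile phase, saturated tanks at 24 °C, UV detection. RM = log[(1/Rf) − 1] from five Rf measurements.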

[6] = In vitro lipid peroxidation of liposomes
[7] = design: method as in PMID 25798685; details: DPPH, cited from earlier work
[8] = design: method as in PMID 25798685; details: cited from earlier work
[9] = design: method as in PMID 25798685; details: cited from earlier work; remark: listed apart in the source
soybean lipoxygenase [10] = target: T1, soybean lipoxygenase; design: method as in PMID 25798685; details: 100 μM; cited from earlier work
[11] = target: acetyl-cholinesterase (AChE) (Electrophorus electricus, UniProt O42275); details: cited from earlier work
[12] = design: method as in PMID 25798685; details: RP-TLC, methanol/water 70/30, SD < 10%; cited from earlier work
[13] = test system: L929 mouse fibroblasts cells; design: method as in PMID 25798685; details: 24-h incubation, cited from earlier work
[14] = test system: L929 mouse fibroblasts cells; test: Cytotoxicity, propidium iodide fluorescence method; format: cell-based; details: 24-h incubation
Outline: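 L929 cells in EMEM with 10% horse serum were allowed to attach for 24 h, then exposed to 1, 10, 20, 50 and 100 μM compound for 24 h at 37 °C. Cells were detached, stained with propidium iodide, and cell death was measured by flow cytometry.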

acetyl-cholinesterase (AChE), sequence (O42275 24-633): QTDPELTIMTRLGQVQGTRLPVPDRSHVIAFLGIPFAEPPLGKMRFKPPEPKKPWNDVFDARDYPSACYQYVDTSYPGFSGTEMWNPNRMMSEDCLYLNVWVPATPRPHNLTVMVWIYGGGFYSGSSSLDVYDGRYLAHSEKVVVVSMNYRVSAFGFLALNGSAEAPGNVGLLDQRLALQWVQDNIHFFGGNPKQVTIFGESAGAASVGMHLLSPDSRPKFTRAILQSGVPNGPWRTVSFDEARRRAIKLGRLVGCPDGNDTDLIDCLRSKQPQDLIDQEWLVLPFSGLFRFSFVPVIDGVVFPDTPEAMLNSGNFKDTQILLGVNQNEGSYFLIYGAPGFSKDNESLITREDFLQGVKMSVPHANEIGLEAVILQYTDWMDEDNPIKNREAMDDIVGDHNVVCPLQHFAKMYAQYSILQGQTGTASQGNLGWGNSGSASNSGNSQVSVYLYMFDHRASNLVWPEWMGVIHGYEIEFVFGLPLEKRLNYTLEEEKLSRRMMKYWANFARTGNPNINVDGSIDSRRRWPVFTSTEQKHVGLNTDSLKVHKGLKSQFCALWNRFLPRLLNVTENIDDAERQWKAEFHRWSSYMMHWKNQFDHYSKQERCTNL

SMILES	RA% 100 μM 20 min [1]	RA% 100 μM 60 min [1]	ABTS•+ Inhb. % @ 100 μM [2]	AAPH% @ 100 μM (anti-lipid peroxidation) [3]	% LOX Inhb. @ 100 μM (soybean lipoxygenase [4])	RM [5]	% Inhb. of Liposomes LP @ 100 μM [6]	IC50 (soybean lipoxygenase [4])	other results
CN(C)c1ccc(/C=C/C=C/C(=O)c2ccc(OCCCCCOc3ccc(C(=O)/C=C/C=C/c4ccc(N(C)C)cc4)cc3)cc2)cc1 [eiv, (2E,2′E,4E,4′E)-1,1′-((pentane-1,5-diylbis(oxy))bis(4,1-phenylene))bis(5-(4-(dimethylamino)phenyl)penta-2,4-dien-1-one)]	No	no	73%	72%	23%	0.13	77%		
CN(C)c1ccc(/C=C/C=C/C(=O)c2ccc(OCCCCCCCOc3ccc(C(=O)/C=C/C=C/c4ccc(N(C)C)cc4)cc3)cc2)cc1 [evi, (2E,2′E,4E,4′E)-1,1′-((heptane-1,7-diylbis(oxy))bis(4,1-phenylene))bis(5-(4-(dimethylamino)phenyl)penta-2,4-dien-1-one)]	No	no	79%	64%	65%		64%	76 µM	
O=C(/C=C/c1ccc(OCc2ccc(Br)cc2)cc1)c1ccc(OCCCOc2ccc(C(=O)/C=C/c3ccc(OCc4ccc(Br)cc4)cc3)cc2)cc1 [c1, (2E,2′E)-1,1′-((propane-1,3-diylbis(oxy))bis(4,1-phenylene))bis(3-(4-((4-bromobenzyl)oxy)phenyl)prop-2-en-1-one)]									RA% 100 μM 20 min ([7]; 20 min): 36%; RA% 100 μM 60 min ([7]; 60 min): 55%; ABTS•+ Inhb. % @ 100 μM [8]: no; AAPH% @ 100 μM (anti-lipid peroxidation) [9]: 42%; % LOX Inhb. @ 100 μM (soybean lipoxygenase [10]): 41%; % AChE Inhb. @ 100 μM [11]: 23%; RM [12]: −0.68; 1 μM Average (% pi) ± σ ([13]; 1 μM): 38.5 ± 6.9%; 10 μM Average (% pi) ± σ ([13]; 10 μM): 49.5 ± 7.8%; 20 μM Average (% pi) ± σ ([13]; 20 μM): 53.5 ± 0.71%; 50 μM Average (% pi) ± σ ([13]; 50 μM): 74 ± 5.6%; 100 μM Average (% pi) ± σ ([13]; 100 μM): 74 ± 5.6%
Cc1ccc(/C=C/C(=O)c2ccc(OCCCOc3ccc(C(=O)/C=C/c4ccc(C)o4)cc3)cc2)o1 [c12, (2E,2′E)-1,1′-((propane-1,3-diylbis(oxy))bis(4,1-phenylene))bis(3-(5-methylfuran-2-yl)prop-2-en-1-one)]	No	no	17%	68%	52%	−0.96	74%	96 µM	1 μM Average (% pi) ± σ ([14]; 1 μM): 13.22 ± 0.64%; 10 μM Average (% pi) ± σ ([14]; 10 μM): 31.31 ± 4.84%; 20 μM Average (% pi) ± σ ([14]; 20 μM): 53.79 ± 16.95%; 50 μM Average (% pi) ± σ ([14]; 50 μM): 84.03 ± 2.25%; 100 μM Average (% pi) ± σ ([14]; 100 μM): 84.03 ± 2.25%
CN(C)c1ccc(/C=C/C=C/C(=O)c2ccc(OCCOc3ccc(C(=O)/C=C/C=C/c4ccc(N(C)C)cc4)cc3)cc2)cc1 [ei]	No	no	98%	71%	77%	0.56	4%	62.5 µM	
